Test results: patent US12606528B2, “Methods and materials for inhibiting NF-kB activity” (University of Pittsburgh - Of the Commonwealth System of …, priority 2019, dated 2026)
Where two headings read alike, the source gives them in different places.

Tests used:
[1] = system: TNF release; test: TNF assay: TNF release from LPS-stimulated human PBMCs (TNF ELISA); assay type: cell-based; settings: PBMC, read-out: IC50 (TNF assay)
Summary of the method: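 TNF ELISA on supernatants read-out; cells were 10k human PBMCs/well given LPS at 10 ng/mL for 18 h after a 2 h compound pre-incubation across a concentration series, with IC50 derived for suppression of TNF secretion.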

[2] = system: NF-κB; test: NF-κB assay: THP1-NF-κB-LUC cells, LPS-stimulated secreted luciferase; assay type: cell-based; settings: THP1-NF-κB-LUC cells, read-out: IC50 (NF-κB assay)
Summary of the method: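 THP1-NF-κB-LUC cells (25k/well) were pretreated with compounds for 2 h, then stimulated with LPS (10 ng/mL) for 18 h. Secreted luciferase was measured and normalized to vehicle, and IC50 was fitted from the concentration series.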

[3] = human PBMCs, compounds 2 hours before LPS (10 ng/ml) for 18 hours, supernatant TNF ELISA
[4] = compounds 2 hours before LPS (10 ng/mL) for 18 hours, secreted luciferase
[5] = LPS-stimulated human PBMCs, TNF ELISA

SMILES	IC50 [1, 3] [µM]	IC50 [2, 4] [µM]	IC50 [1, 5] [µM]	IC50 ([2]; LPS-stimulated) [µM]
O=C1COc2c(cc(Br)cc2S(=O)(=O)NC2CCC(O)CC2)N1 (stereo not shown) [BC19381]	> 10	> 10	–	–
O=C1COc2c(cc(Br)cc2S(=O)(=O)NCc2ccc(C(F)(F)F)cc2)N1 [BC19382]	> 10	> 10	–	–
O=C1COc2c(cc(Br)cc2S(=O)(=O)NCCc2ccc(OC(F)(F)F)cc2)N1 [BC19383]	> 10	> 10	–	–
O=C1COc2c(cc(Br)cc2S(=O)(=O)Nc2ccc(C(F)(F)F)cc2Cl)N1 [BC19384]	> 10	< 0.1	–	–
O=C1COc2c(cc(Br)cc2S(=O)(=O)NCc2ccc(OC(F)(F)F)cc2)N1 [BC19385]	> 10	> 10	–	–
O=C1COc2c(cc(Br)cc2S(=O)(=O)NCc2ccc(F)cc2F)N1 [BC19386]	> 10	> 10	–	–
O=C1COc2cc(S(=O)(=O)NCCc3ccc(OC(F)(F)F)cc3)c(Br)cc2N1 [BC19387]	> 10	> 10	–	–
CC(C)(C)C1CCC(NS(=O)(=O)c2cc3c(cc2Br)NC(=O)CO3)CC1 (stereo not shown) [BC19388]	> 10	> 10	–	–
O=C1COc2cc(S(=O)(=O)NC3CCC(O)CC3)c(Br)cc2N1 (stereo not shown) [BC19389]	> 10	> 10	–	–
O=C1COc2cc(S(=O)(=O)Nc3ccc(C(F)(F)F)cc3Cl)c(Br)cc2N1 [BC19390]	> 10	1 to 10	–	–
O=C1COc2cc(S(=O)(=O)NCc3ccc(C(F)(F)F)cc3)c(Br)cc2N1 [BC19391]	> 10	> 10	–	–
O=C1COc2cc(S(=O)(=O)NCc3ccc(OC(F)(F)F)cc3)c(Br)cc2N1 [BC19392]	> 10	> 10	–	–
O=C1COc2cc(S(=O)(=O)NCc3ccc(F)cc3F)c(Br)cc2N1 [BC19393]	> 10	> 10	–	–
CC1Oc2c(cc(Cl)cc2S(=O)(=O)Nc2ccc(OC(F)(F)F)cc2)NC1=O (stereo not shown) [BC19394]	> 10	< 0.1	–	–
CN1CCN(C(=O)c2ccc3nc(-c4ccc(F)cc4)c(S(=O)(=O)c4cccc(F)c4)nc3c2)CC1 [BC19395]	–	–	< 0.1	0.1 to 1
OCCn1cc(-c2ccc3nc(-c4ccc(F)cc4)c(-c4ccc(F)cc4)nc3c2)nn1 [BC19396]	–	–	> 10	< 0.1
C#CC(=O)Nc1ccc2nc(-c3ccc(F)cc3)c(-c3ccc(F)cc3)nc2c1 [BC19397]	–	–	0.1 to 1	< 0.1
CN1CCN(C(=O)c2ccc3nc(-c4ccc(F)cc4)c(-c4ccc(Cl)cc4Cl)nc3c2)CC1 [BC19398]	–	–	> 10	0.1 to 1
CN1CCN(C(=O)c2ccc3nc(-c4ccc(F)cc4)c(-c4ccc(OC(F)(F)F)cc4)nc3c2)CC1 [BC19399]	–	–	> 10	> 10

SMILES	IC50 [1, 3] [µM]	IC50 [2, 4] [µM]	IC50 [1, 5] [µM]	IC50 ([2]; LPS-stimulated) [µM]
CN1CCN(C(=O)c2cccc3nc(-c4ccc(F)cc4)c(-c4ccc(F)cc4)nc23)CC1 [BC19400]	–	–	> 10	> 10
Cn1cc(-c2cnc3nc(-c4ccc(F)cc4)c(-c4ccc(F)cc4)nc3c2)nn1 [BC19401]	–	–	> 10	< 0.1
CCCn1cc(-c2cnc3nc(-c4ccc(F)cc4)c(-c4ccc(F)cc4)nc3c2)nn1 [BC19402]	–	–	> 10	< 0.1
Fc1ccc(-c2nc3cccnc3nc2-c2ccc(F)cc2)cc1 [BC19403]	–	–	> 10	0.1 to 1
OCCn1ncc(-c2ccc3nc(-c4ccc(F)cc4)c(-c4ccc(F)cc4)nc3c2)n1 [BC19404]	–	–	> 10	1 to 10
CN1CCN(C(=O)c2ccc3nc(-c4ccc(F)cc4F)c(-c4ccccc4)nc3c2)CC1 [BC19405]	–	–	> 10	0.1 to 1
C#CCNC(=O)c1ccc2nc(-c3ccc(F)cc3F)c(-c3ccccc3)nc2c1 [BC19406]	–	–	> 10	0.1 to 1
O=C(O)c1cnc2nc(-c3ccc(F)cc3)c(-c3ccc(F)cc3)nc2c1 [BC19407]	–	–	> 10	0.1 to 1
CN1CCN(C(=O)c2cnc3nc(-c4ccc(F)cc4)c(-c4ccc(F)cc4)nc3c2)CC1 [BC19408]	–	–	> 10	0.1 to 1
O=c1c(S(=O)(=O)c2cccc(F)c2)c(O)[nH]c2ncccc12 [BC19409]	> 10	> 10	–	–
COc1cccc(-c2nc(S(=O)(=O)c3ccc(Cl)cc3)c(S(C)(=O)=O)[nH]2)c1 [BC19410]	–	–	> 10	0.1 to 1
CC(C)S(=O)(=O)c1oc(-c2cccc(F)c2)nc1S(=O)(=O)c1ccc(Cl)cc1 [BC19411]	–	–	< 0.1	< 0.1
O=S(=O)(c1ccc(Cl)cc1)c1nc(-c2cccc(F)c2)oc1S(=O)(=O)C1CCCCC1 [BC19412]	–	–	0.1 to 1	0.1 to 1
C[S+]([O-])c1sc(-c2ccc(F)cc2)nc1S(=O)(=O)c1ccc(Cl)cc1 (stereo not shown) [BC19413]	–	–	1 to 10	> 10
CCC[S+]([O-])c1sc(-c2ccc(F)cc2)nc1S(=O)(=O)c1ccc(Cl)cc1 (stereo not shown) [BC19414]	–	–	> 10	> 10
CC(C)[S+]([O-])c1sc(-c2ccc(F)cc2)nc1S(=O)(=O)c1ccc(Cl)cc1 (stereo not shown) [BC19415]	–	–	1 to 10	> 10
O=S(=O)(c1ccc(Cl)cc1)c1nc(-c2ccc(F)cc2)sc1[S+]([O-])CC1CC1 (stereo not shown) [BC19416]	–	–	> 10	> 10
CCC[S+]([O-])c1oc(-c2ccc(Cl)cc2)nc1S(=O)(=O)c1ccc(Cl)cc1 (stereo not shown) [BC19417]	–	–	1 to 10	0.1 to 1
CCCS(=O)(=O)c1oc(-c2ccc(Cl)cc2)nc1S(=O)(=O)c1ccc(Cl)cc1 [BC19418]	–	–	1 to 10	1 to 10

SMILES	IC50 [1, 3] [µM]	IC50 [2, 4] [µM]	IC50 [1, 5] [µM]	IC50 ([2]; LPS-stimulated) [µM]
CC(C)CS(=O)(=O)c1oc(-c2ccc(Cl)cc2)nc1S(=O)(=O)c1ccc(Cl)cc1 [BC19419]	–	–	0.1 to 1	1 to 10
COCC[S+]([O-])c1[nH]c(-c2ccccc2)nc1S(=O)(=O)c1ccc(Cl)cc1 (stereo not shown) [BC19420]	–	–	> 10	> 10
CCS(=O)(=O)c1cc2c(c(S(=O)(=O)Nc3ccc(F)c(F)c3)c1)OCC(=O)N2 [BC19421]	> 10	< 0.1	–	–
CS(=O)(=O)c1cc2c(c(S(=O)(=O)Nc3ccc(OC(F)(F)F)cc3)c1)OCC(=O)N2 [BC19422]	> 10	< 0.1	–	–
Cc1ccc(NS(=O)(=O)c2cc(S(C)(=O)=O)cc3c2OCC(=O)N3)cc1F [BC19423]	> 10	< 0.1	–	–
CC(C)c1ccc(NS(=O)(=O)c2cc(S(C)(=O)=O)cc3c2OCC(=O)N3)cc1 [BC19424]	> 10	< 0.1	–	–
CS(=O)(=O)c1cc2c(c(S(=O)(=O)Nc3ccc(F)cc3F)c1)OCC(=O)N2 [BC19425]	> 10	< 0.1	–	–
CS(=O)(=O)c1cc2c(c(S(=O)(=O)Nc3cccc(F)c3)c1)OCC(=O)N2 [BC19426]	> 10	< 0.1	–	–
CS(=O)(=O)c1cc2c(c(S(=O)(=O)Nc3cccc(Cl)c3)c1)OCC(=O)N2 [BC19427]	> 10	< 0.1	–	–
CS(=O)(=O)c1cc2c(c(S(=O)(=O)Nc3ccc(F)cc3Cl)c1)OCC(=O)N2 [BC19428]	> 10	0.1 to 1	–	–
COc1ccc(NS(=O)(=O)c2cc(S(C)(=O)=O)cc3c2OCC(=O)N3)cc1Cl [BC19429]	> 10	> 10	–	–
CS(=O)(=O)c1cc2c(c(S(=O)(=O)Nc3ccc(F)cc3)c1)OCC(=O)N2 [BC19430]	> 10	< 0.1	–	–
CS(=O)(=O)c1cc2c(c(S(=O)(=O)Nc3ccc(C#N)cc3)c1)OCC(=O)N2 [BC19431]	> 10	< 0.1	–	–
Cc1ccc(NS(=O)(=O)c2c(C)c(Cl)cc3c2OCC(=O)N3)cc1 [BC19432]	> 10	0.1 to 1	–	–
Cc1ccc(NS(=O)(=O)c2c(C)c(Cl)cc3c2OCC(=O)N3)cc1Cl [BC19433]	> 10	< 0.1	–	–
Cc1c(Cl)cc2c(c1S(=O)(=O)Nc1ccc(Cl)cc1)OCC(=O)N2 [BC19434]	> 10	< 0.1	–	–
CCS(=O)(=O)c1cc2c(c(S(=O)(=O)Nc3ccc(OC(F)(F)F)cc3)c1)OCC(=O)N2 [BC19435]	> 10	< 0.1	–	–
CCS(=O)(=O)c1cc2c(c(S(=O)(=O)Nc3ccc(C)c(F)c3)c1)OCC(=O)N2 [BC19436]	> 10	< 0.1	–	–
